Source: patent US20110245213A1, “TREATMENT” (PROVEXIS NATURAL PRODUCTS LIMITED, priority 2008, published 2011)
Values joined by “and” are separate entries in the source; they are usually repeats but may differ in a detail not shown here. Identical values can stand only once.

How the values were obtained:
[1] = biological target: T1, bovine insulin (Bos taurus, UniProt P01317); test: Incubation of peptides with isothiocyanates, LC-MS/MS: insulin; format: binding; conditions: for conjugate of insulin peptide and ITC: PBS pH 7.4, 37° C., 0.5 to 24 hours
T1 construct: m/z 325.2 corresponds to Phe-SF, the N-terminal amino acid of insulin B chain; m/z 235.0 corresponds to Gly-SF, the N-terminal amino acid of insulin A chain; purchased Sigma-Aldrich
T1 sequence (P01317 25-54 limits assumed): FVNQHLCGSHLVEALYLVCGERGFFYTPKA
T1 sequence (P01317 85-105 limits assumed): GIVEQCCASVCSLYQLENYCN
Procedure: (§1) Incubations of SF or IB with bovine insulin (P01308, Sigma-Aldrich), recombinant human epidermal growth factor (EGF, P01133, R&D Systems, http://www.rndsystems.com/) and recombinant human transforming growth factor beta 1 (TGFβ1, P01137, R&D Systems) were performed in sodium phosphate-buffered saline solution (pH 7.4) or human blood plasma at 37° C. for 0.5-24 h. Plasma was pre-treated by ultrafiltration to remove high molecular weight proteins (Microcon Ultracel YM-30 filter, MWCO 30,000). Samples were either analyzed directly by LC-MS/MS or by LC-MS/MS analysis of tryptic digests of gel electrophoresis bands.
(§2) The LC system used was a Shimadzu series 10AD VP (Shimadzu, http://www.shimadzu.com/). The column was an ACE 300 C18, 150×2.1 mm (5 μm particle size) used at 40° C. Mobile phase A was 0.1% formic acid in water, mobile phase B, 0.1% formic acid in acetonitrile and the flow rate was 0.25 ml/min. A linear gradient was used from 25% B to 35% B over 0 to 5 min, then a further gradient from 35% B to 99% B over 6 min followed by 99% B for 4 min. The column was re-equilibrated for a total of 3 min. The injection volume was between 5-20 μl. All MS experiments were conducted on a 4000 QTRAP hybrid triple-quadrupole linear ion trap mass spectrometer using Analyst version 1.4.1 software (Applied Biosystems, http://www.appliedbiosystems.com/) equipped with a TurboIon source used in positive ion electrospray mode. The probe capillary voltage was optimized at 4200 V, desolvation temperature set to 400° C., curtain gas, nebulizing and turbo spray gas were set to 40, 10 and 20, respectively (arbitrary values). […] The peak-width was set on Q1 and Q3 at 1.0 Th (measured at half height) for all MS and MS/MS experiments. Spectra were obtained over the range m/z 800-2000 with scan times of 1-2 sec. […]

[2] = biological target: T2, recombinant human epidermal growth factor (EGF) (Homo sapiens, UniProt P01133); test: Incubation of peptides with isothiocyanates, LC-MS/MS: EGF; format: binding; conditions: for conjugate of EGF peptide and ITC: PBS pH 7.4, 37° C., 0.5 to 24 hours
T2 construct: addition of SF to the N-terminal asparagines residue (m/z 309) of EGF; purchased R&D Systems
T2 sequence (P01133 971-1023 limits assumed): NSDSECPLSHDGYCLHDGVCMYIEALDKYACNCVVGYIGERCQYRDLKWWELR
Procedure: as §1, §2

[3] = biological target: T3, recombinant human transforming growth factor beta 1 (TGFβ1) (Homo sapiens, UniProt P01137); test: Incubation of peptides with isothiocyanates, LC-MS/MS: TGFβ1; format: binding; conditions: for conjugate of TGFβ1 peptide and ITC: PBS pH 7.4, 37° C., 0.5 to 24 hours
T3 construct: TGFβ1 was robustly identified in bands of 25 kDa corresponding to the active dimer; purchased R&D Systems
T3 sequence (P01137 279-390 limits assumed): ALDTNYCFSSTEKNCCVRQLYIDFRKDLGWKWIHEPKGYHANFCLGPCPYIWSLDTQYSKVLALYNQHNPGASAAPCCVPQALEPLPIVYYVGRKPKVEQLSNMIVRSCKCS
Procedure: as §1
1 μg aliquots of the TGFβ1 protein, supplied with bovine serum albumin as carrier, were incubated with either DMSO or 1.2 μmoles of SF for 30 minutes at 37° C. and run onto denaturing 4-12% Bis-Tris NuPAGE gels (Invitrogen, http://www.invitrogen.com). Bands were excised and digested with trypsin (Promega, http://www.promega.com/) after reduction with dithiothreitol (DTT) and alklyation with iodoacetamide (Sigma-Aldrich, http://www.sigmaaldrich.com/). Extracted peptides were lyophilized and re-dissolved in 1% acetonitrile, 0.1% formic acid for analysis by mass spectrometry. LC-MS/MS analysis was performed using a LTQ mass spectrometer (Thermo Electron Corporation, http://www.thermo.com/) and a nanoflow-HPLC system (Surveyor, Thermo Electron). Peptides were applied to a precolumn (C18 pepmap100, LC Packings, http://www.lcpackings.com/) connected to a self-packed C18 8-cm analytical column (BioBasic resin ThermoElectron; Picotip 75 μm id, 15 μm tip, New Objective, http://www.newobjective.com/). Peptides were eluted by a gradient of 2 to 30% acetonitrile in 0.1% formic acid over 40 min at a flow rate of approximately 250 nL min^−1. Data-dependent acquisition of MS/MS consisted of selection of the five most abundant ions in each cycle: MS mass-to-charge ratio (m/z) 300 to 2000, minimum signal 1000, collision energy 25, 5 repeat hits, 300 sec exclusion.

[4] = test system: TGFβ1/Smad mediated transcription; test: Luciferase reporter gene assay in NIH 3T3 cells with CAGA12-luc plasmid; format: cell-based
Procedure: NIH 3T3 cells stably transfected with a CAGA12-luc plasmid, which responds to Smad activation (Dennler et al. (1998) Embo J 17: 3091-3100), were cultured in DMEM supplemented with 10% fetal calf serum (FCS), 1% penicillin, 1% streptomycin, 1% L-glutamine and 0.4 mg/ml geneticin. Cells were seeded into complete growth medium in a six-well tissue culture dish for 24 h, after which the medium was replaced with low serum medium (0.5% FCS) containing one of three treatments:
(1) TGFβ1 (to achieve a final concentration of 2 ng ml^−1) in PBS buffer,
(2) (TGFβ1+10 mM DTT in PBS buffer
(3) TGFβ1+2 μM SF in PBS buffer.
To simulate SF pharmacokinetics, all test samples were incubated at 37° C. for 30 minutes prior to dialysis, performed in PBS buffer for 4 hours using Slide-A-Lyzer Dialysis Cassettes MWCO 3.5K (PIERCE, http://www.piercenet.com/). Dialysis reduced SF concentration to 34 nM. As additional controls, cells were treated with PBS without TGFβ1 and PBS with SF (34 nM). The luciferase activity was determined 16 h following treatment using the Luciferase Reporter Gene assay (Roche Applied Science, http://www.roche.com/) in a Perkin Elmer Wallac Victor 2 1420 multilabel counter plate reader (http://las.perkinelmer.com/). Briefly, cells were washed twice with PBS and lysed in cell lysis buffer supplied with the assay. Chemiluminescence was immediately quantified following the addition of luciferase assay substrate. Luciferase values were normalized to protein concentration quantified using the BCA assay (Sigma-Aldrich, http://www.sigmaaldrich.com/). The experiment was repeated four times, with three replicates of each treatment per experiment. Statistical analysis was performed using 1-way ANOVA with the statistical software, R (http://www.R-project.org).

[5] = test system: Smad2 phosphorylation in PC3 cells; test: Quantification of pSmad2 protein in PC3 cells; format: cell-based; conditions: for PSmad2 / PSmad2 Normalised to GAPDH: PC3 cells
Procedure: FIG. 14 represents (a) a photograph of a gel; and (b) the data quantified in a bar chart which corresponds to the data presented in Table 6 as discussed in Example 2 (Expt 2). The data illustrates how an ITC modulates Smad activity. The experiment concerned pre-incubation of TGFβ1 with and without sulforaphane (SF) for 30 minutes before treating PC3 cells for 1 h and then measuring Smad2 phosphorylation (i.e. a function of TGFβ1 activity).
TGFβ1 acts an anti-inflammatory cytokine. It induces phosphorylation of smad proteins that translocate to the nucleus and induce gene expression associated with anti-inflammatory activity. […] Therefore ITCs act as anti-inflammatory mediators.

[6] = test system: EGF receptor phosphorylation in BPH1 cells (hyperplastic prostate cells); conditions: BPH cells
[7] = following broccoli consumption, cited from earlier work
[8] = test system: Smad2 phosphorylation in A549 cells; test: Quantification of pSmad2 protein in A549 cells; format: cell-based; conditions: TGFβ1 alone
[9] = TGFβ1 + 2 μM SF, pre-incubated 30 minutes, cells treated 1 h
[10] = TGFβ1 + 10 μM SF, pre-incubated 30 minutes, cells treated 1 h

Molecule: C[S+]([O-])CCCN=C=S (stereo not shown) [IB, iberin]
- conjugate of insulin peptide and ITC [1]: formation of a covalently bound conjugate
- conjugate of EGF peptide and ITC [2]: formation of a covalently bound conjugate
- conjugate of TGFβ1 peptide and ITC [3]: formation of a covalently bound conjugate

Molecule: C[S+]([O-])CCCCN=C=S (stereo not shown) [SF, sulforaphane]
- conjugate of insulin peptide and ITC [1]: formation of a covalently bound conjugate
- insulin-ITC conjugates (N-terminal Gly and Phe) by LC-MS/MS ([1]; human plasma depleted of high MW proteins): appearance of two insulin-SF conjugates
- conjugate of EGF peptide and ITC [2]: formation of a covalently bound conjugate
- EGF conjugates (N-terminal asparagine) by LC-MS/MS ([2]; human plasma): formation of EGF conjugates with SF
- modification of TGFβ1 (tryptic N-terminal peptide, LC-MS/MS) ([3]; 1 μg TGFβ1 with 1.2 μmoles of SF, 30 minutes at 37° C., SDS-PAGE, trypsin): N-terminal modification
- conjugate of TGFβ1 peptide and ITC [3]: formation of a covalently bound conjugate
- Smad-mediated transcription (luciferase) compared to TGFβ1 alone ([4]; TGFβ1 pre-incubated with 2 μM SF for 30 minutes followed by dialysis (SF 34 nM)): increase in Smad-mediated transcription
- Smad-mediated transcription (luciferase) ([4]; residual SF (34 nM) alone, without TGFβ1): did not result in enhanced transcription
- expression of pSmad2 compared to TGFβ1 alone ([5]; PC3 cell line, co-exposure to TGFβ1 and SF): enhances expression of psamd2
- PSmad2 [5, 9]: 8179 counts/mm^2 and 12578 counts/mm^2 and 11881 counts/mm^2
- PSmad2 Normalised to GAPDH [5, 9]: 0.1772 and 0.2807 and 0.3091
- PSmad2 [5, 10]: 13595 counts/mm^2 and 16870 counts/mm^2 and 15049 counts/mm^2
- PSmad2 Normalised to GAPDH [5, 10]: 0.2602 and 0.2810 and 0.3104
- reduction in EGF receptor phosphorylation ([6]; 10 μmol/L sulforaphane, 10 mg/L EGF, 10 minute timecourse): approximately threefold
- amount of phosphorylated EGF receptor compared to EGF alone ([6]; pre-incubation of EGF with ITC): reduces the amount of phosphorylated receptor
- SF in the plasma that occurs as free SF, as opposed to thiol conjugates [7]: 45%
- peak concentration of SF and its thiol conjugates ([7]; plasma): less than 2 μM

Molecule: TGFβ1: recombinant human transforming growth factor beta 1 (P01137, R&D Systems)
- luciferase activity ([4]; TGFβ1 alone, 2 ng ml^−1): induced luciferase activity
- PSmad2 ([5]; TGFβ1 alone, 1 h): 6154 counts/mm^2 and 10910 counts/mm^2 and 7089 counts/mm^2
- PSmad2 Normalised to GAPDH ([5]; TGFβ1 alone, 1 h): 0.1039 and 0.1722 and 0.1398
- PSmad2 [8]: 1570 counts/mm^2
- PSmad2 Normalised to GAPDH [8]: 0.1320
